# Literature values as cited in patent US12472264B2, “Cell-penetrating peptides” (Oxford University Innovation Limited, priority 2018, dated 2025).
# Tested on: exon 51
# Settings: background statement on FDA accelerated approval, September 2016
substance,measurement,value
eteplirsen,levels of dystrophin restoration,approximately 1 % of normal dystrophin levels
